Results taken from paper PMC5510229, “BCAT1 controls metabolic reprogramming in activated human macrophages and is associated with inflammatory diseases” (Nature Communications, 2017).

Tests used:
recombinant human BCAT2 = target: T1, recombinant human BCAT2 (Homo sapiens, UniProt O15382); test: BCAT2 aminotransferase enzymatic assay (continuous fluorometric); format: biochemical
T1 construct: purchased Abcam
T1 sequence (O15382 28-392): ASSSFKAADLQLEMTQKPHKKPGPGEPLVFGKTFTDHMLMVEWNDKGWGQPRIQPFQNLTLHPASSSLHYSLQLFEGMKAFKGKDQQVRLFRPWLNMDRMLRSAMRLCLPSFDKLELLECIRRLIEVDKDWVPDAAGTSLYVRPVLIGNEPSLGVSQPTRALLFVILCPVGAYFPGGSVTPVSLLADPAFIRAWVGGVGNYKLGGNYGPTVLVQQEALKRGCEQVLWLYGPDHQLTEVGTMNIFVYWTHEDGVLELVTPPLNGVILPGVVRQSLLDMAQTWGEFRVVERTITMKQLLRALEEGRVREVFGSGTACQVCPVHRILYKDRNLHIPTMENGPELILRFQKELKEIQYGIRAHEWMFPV

[1] = test system: mouse bone marrow derived macrophages (BMDMs); test: BMDM cell number (CyQuant); format: cell-based, C57BL/6 mouse; conditions: treatment for 24 h
From the text: Figure 6 ERG240 treatment results in reduced macrophage infiltration in CIA and crescentic glomerulonephritis. (a) Inhibition of murine BMDM migration in vitro in the presence of different concentrations of ERG240 by transwell migration assay (left panel, results are presented as the average of four experiments). The drug had no effect on cell viability (right panel, results are presented as the average of three experiments). (b) IHC analysis of CIA joints for expression of F4/80. Representative images show F4/80+ cells (indicated with an arrow). F4/80+ cell quantification is shown on the right panel. (c) Representative images showing glomerular ED1 (rat CD68)-positive cells in ERG240 treated animals following NTN. Percentage of glomerular ED1-positive cell quantification is shown on the right panel. Error bars are s.e.m. […]
The migration of BMDMs was assessed using a modified Bo yden chamber methodology. […]
To determine the effect of ERG240 on the total number of BMDMs, cell s were plated onto a 96-well plate at a density of 5,000 cells per well in complete media and allowed to adhere overnight. The cells were then exposed to various drug concentrations overnight and the cell population was quantified with CyQuant Cell Proliferation kit (Life Technologies) using triplicates, in two independent experiments. For hMDMs, cell viability was determined using the alamarBlue® Assa y (Invitrogen). […]

[2] = test system: human monocyte-derived macrophages (hMDMs); test: Seahorse extracellular flux analysis (OCR, ECAR) in hMDMs; format: cell-based; conditions: LPS 100 ng ml^−1 + ERG240 20 mM, 3 h
Protocol: Figure 2 BCAT1 inhibition reduces oxygen consumption and glycolysis in human macrophages. (a) Real-time extracellular OCR measurements in hMDMs (left panel) that were previously treated with either LPS (100 ng ml^−1) or LPS+ERG240 (20 mM) for 3 h. OCR values were recorded following sequential treatments with glucose (5 mM), oligomycin A (0.5 μM), carbonyl cyanide 4-(trifluoromethoxy) phenyl- hydrazine (FCCP, 1 μM) and a combination of 2-deoxy-D-glucose (2-DG, 50 mM), antimycin A (1 μM) and rotenone (1 μM). Basal respiration, estimated ATP production, and maximal respiration are shown in the right panel. n=3 healthy donor hMDMs were used in 12 technical replicates. The results are representative of three independent experiments. (b) Real-time ECAR (left panel), glycolysis and glycolytic capacity (right panel). n=3 healthy donor hMDMs were used in 12 technical replicates. The results are representative of three independent experiments. (c) hMDMs were subjected to BCAT1 siRNA (si-BCAT1) or non-targeting siRNA (Si-Control) treatment, followed by LPS stimulation (3 h, 100 ng ml^−1) before measuring BCAT1 expression levels (left panel), OCR (middle panel) and ECAR (right panel). (d) Basal respiration, estimated ATP production, maximal respiration, glycolysis and glycolytic capacity in si-Control and si-BCAT1 transfected, LPS-treated hMDMs. n=4 hMDMs were used in at least five technical replicates. Error bars are s.e.m. Significance was tested using two-tailed Student’s t-test.
Real-time measurements of OCR and ECAR were performed using a Seahorse XF96 Extracellular Flux Analyzer (Seahorse Bioscience). hMDMs cultured for 5 days in presence of RPMI containing M-CSF (100 ng ml^−1) and FCS (10%) were washed and incubated with either ERG240 or LPS or a combination of both for 3 h. Cells were then washed, re-suspended using the non-enzymatic cell dissociation buffer (Sigma) and 5 × 10^5 hMDMs were seeded as a monolayer in a 96-well microplate containing XF Assay Modified DMEM. Glucose and different metabolic drugs were injected during real-time measurements of OCR and ECAR. Basal respiration was calculated as the last measurement before addition of oligomycin – non mitochondrial respiration (minimum rate measurement after Rot/AntA). Estimated ATP production designates the last measurement before addition of oligomycin – minimum rate after oligomycin. Maximal respiration is shown as the maximum rate measurement after addition of FCCP – non mitochondrial respiration (minimum rate measurement after Rot/AntA). Glycolysis refers to ECAR values before the addition of oligomycin – ECAR values before the addition of glucose. […] In RNAi experiments, hMDMs transfected with either BCAT1 siRNA or control (non-targeting) siRNA were seeded in a 96-well microplate, LPS-stimulated (100 ng ml^−1, 3 h) and real-time measurements of OCR and ECAR were recorded, as described above.

Compound: CC(=O)C(C)CCC(=O)O (stereo not drawn) [ERG240]
- inhibition of BCAT2 (recombinant human BCAT2): no inhibition
- BMDM cell numbers [1]: did not affect cell numbers
- basal respiration [2]: significantly reduced
- estimated ATP production [2]: significantly reduced
- extracellular acidification rate (ECAR) [2]: decreased
- glycolysis [2]: significantly reduced
- glycolytic capacity [2]: significantly reduced
- maximal respiration [2]: significantly reduced
- oxygen consumption rate (OCR) [2]: decreased
